Calls of active or inactive are those of the source.
Key:
[1] = target: T1, Discoidin domain-containing receptor 2 (Homo sapiens, UniProt Q16832)
T1 sequence (Q16832 whole entry): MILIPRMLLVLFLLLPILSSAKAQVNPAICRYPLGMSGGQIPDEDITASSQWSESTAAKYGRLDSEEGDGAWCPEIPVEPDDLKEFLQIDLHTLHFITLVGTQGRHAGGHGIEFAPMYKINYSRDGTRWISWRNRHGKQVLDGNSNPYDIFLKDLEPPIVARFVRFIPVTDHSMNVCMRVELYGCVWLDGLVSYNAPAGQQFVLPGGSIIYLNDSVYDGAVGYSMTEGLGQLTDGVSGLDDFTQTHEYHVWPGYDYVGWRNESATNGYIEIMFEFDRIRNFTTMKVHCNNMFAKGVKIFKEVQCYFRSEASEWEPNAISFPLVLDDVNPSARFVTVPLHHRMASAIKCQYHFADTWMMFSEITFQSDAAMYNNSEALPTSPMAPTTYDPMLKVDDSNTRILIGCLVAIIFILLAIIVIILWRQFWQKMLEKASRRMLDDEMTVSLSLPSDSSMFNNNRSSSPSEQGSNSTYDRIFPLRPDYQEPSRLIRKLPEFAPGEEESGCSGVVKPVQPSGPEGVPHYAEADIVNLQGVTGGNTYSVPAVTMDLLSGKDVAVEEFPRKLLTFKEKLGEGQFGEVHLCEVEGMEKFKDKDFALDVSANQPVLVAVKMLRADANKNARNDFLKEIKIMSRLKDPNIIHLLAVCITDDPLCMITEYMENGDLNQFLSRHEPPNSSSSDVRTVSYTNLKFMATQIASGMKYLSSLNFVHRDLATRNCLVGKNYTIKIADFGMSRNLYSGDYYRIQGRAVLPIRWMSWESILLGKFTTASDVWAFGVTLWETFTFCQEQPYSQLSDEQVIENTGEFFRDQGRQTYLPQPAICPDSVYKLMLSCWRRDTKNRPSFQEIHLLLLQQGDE

[2] = target: Serine/threonine-protein kinase B-raf (Homo sapiens, UniProt P15056)
Sequence of Serine/threonine-protein kinase B-raf (P15056 whole entry): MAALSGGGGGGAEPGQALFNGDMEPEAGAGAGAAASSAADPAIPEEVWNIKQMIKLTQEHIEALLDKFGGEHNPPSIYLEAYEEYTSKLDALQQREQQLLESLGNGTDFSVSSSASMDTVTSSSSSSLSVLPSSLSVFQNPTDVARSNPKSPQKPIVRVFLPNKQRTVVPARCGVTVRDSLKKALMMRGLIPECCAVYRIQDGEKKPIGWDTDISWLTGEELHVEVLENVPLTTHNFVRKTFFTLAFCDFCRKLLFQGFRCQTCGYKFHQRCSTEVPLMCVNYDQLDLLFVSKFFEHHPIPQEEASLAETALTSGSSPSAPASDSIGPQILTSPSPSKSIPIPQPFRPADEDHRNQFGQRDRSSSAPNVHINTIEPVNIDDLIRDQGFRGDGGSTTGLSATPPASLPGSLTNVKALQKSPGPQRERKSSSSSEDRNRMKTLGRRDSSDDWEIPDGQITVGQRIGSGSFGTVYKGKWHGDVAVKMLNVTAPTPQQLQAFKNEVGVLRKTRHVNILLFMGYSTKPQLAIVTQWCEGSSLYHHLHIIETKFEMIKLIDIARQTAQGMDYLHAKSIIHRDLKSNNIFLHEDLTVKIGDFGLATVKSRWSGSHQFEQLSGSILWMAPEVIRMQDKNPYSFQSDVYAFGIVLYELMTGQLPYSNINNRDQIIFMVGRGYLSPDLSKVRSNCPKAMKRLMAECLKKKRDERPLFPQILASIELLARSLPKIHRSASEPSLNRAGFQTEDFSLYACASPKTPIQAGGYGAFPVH

[3] = target: T2, MAP/microtubule affinity-regulating kinase 4 (Homo sapiens, UniProt Q96L34)
T2 sequence (Q96L34 whole entry): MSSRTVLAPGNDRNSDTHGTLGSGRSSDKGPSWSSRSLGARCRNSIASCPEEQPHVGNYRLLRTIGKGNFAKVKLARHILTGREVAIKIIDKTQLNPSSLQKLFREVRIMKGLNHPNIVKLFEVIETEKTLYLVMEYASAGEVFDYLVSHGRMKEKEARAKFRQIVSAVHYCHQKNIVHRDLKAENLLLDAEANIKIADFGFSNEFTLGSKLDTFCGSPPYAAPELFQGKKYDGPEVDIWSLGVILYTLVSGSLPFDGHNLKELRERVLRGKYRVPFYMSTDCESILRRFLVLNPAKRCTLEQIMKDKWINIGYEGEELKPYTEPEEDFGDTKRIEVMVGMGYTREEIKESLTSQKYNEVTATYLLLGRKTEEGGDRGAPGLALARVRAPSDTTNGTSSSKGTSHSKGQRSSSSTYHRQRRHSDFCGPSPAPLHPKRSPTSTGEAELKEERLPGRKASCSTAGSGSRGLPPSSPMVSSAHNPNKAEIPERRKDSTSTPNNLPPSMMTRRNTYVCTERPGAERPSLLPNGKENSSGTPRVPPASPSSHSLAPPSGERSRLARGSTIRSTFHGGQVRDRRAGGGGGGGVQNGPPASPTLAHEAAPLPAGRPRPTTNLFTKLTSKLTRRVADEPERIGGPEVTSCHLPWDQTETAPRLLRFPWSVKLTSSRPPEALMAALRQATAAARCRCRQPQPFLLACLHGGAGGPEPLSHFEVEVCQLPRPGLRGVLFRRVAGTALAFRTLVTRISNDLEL

[4] = target: T3, DNA replication licensing factor MCM4 (Homo sapiens, UniProt P33991)
T3 sequence (P33991 whole entry): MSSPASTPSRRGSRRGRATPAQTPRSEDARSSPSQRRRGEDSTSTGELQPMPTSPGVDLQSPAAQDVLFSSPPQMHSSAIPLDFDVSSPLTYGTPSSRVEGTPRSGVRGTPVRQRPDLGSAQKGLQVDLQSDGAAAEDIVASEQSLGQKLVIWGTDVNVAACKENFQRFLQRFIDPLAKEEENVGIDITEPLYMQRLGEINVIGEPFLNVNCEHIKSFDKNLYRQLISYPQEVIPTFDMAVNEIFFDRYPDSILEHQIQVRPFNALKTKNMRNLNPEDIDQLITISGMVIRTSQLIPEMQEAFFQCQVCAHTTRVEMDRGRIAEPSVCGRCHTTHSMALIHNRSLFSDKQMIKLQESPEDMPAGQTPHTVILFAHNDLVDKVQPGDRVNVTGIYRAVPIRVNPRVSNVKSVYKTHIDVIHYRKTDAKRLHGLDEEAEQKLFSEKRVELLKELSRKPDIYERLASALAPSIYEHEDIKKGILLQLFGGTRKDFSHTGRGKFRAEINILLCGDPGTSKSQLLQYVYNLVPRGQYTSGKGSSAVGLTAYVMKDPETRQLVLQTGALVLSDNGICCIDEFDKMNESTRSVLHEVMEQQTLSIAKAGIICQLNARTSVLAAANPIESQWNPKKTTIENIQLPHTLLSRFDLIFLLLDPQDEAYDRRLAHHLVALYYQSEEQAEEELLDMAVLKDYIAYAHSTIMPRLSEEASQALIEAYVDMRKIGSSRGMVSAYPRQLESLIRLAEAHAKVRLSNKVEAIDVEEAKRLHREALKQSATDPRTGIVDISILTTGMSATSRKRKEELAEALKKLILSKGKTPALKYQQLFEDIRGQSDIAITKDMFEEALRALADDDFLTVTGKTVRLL

[5] = target: Serine/threonine-protein kinase MRCK beta (Homo sapiens, UniProt Q9Y5S2)
Sequence of Serine/threonine-protein kinase MRCK beta (Q9Y5S2 whole entry): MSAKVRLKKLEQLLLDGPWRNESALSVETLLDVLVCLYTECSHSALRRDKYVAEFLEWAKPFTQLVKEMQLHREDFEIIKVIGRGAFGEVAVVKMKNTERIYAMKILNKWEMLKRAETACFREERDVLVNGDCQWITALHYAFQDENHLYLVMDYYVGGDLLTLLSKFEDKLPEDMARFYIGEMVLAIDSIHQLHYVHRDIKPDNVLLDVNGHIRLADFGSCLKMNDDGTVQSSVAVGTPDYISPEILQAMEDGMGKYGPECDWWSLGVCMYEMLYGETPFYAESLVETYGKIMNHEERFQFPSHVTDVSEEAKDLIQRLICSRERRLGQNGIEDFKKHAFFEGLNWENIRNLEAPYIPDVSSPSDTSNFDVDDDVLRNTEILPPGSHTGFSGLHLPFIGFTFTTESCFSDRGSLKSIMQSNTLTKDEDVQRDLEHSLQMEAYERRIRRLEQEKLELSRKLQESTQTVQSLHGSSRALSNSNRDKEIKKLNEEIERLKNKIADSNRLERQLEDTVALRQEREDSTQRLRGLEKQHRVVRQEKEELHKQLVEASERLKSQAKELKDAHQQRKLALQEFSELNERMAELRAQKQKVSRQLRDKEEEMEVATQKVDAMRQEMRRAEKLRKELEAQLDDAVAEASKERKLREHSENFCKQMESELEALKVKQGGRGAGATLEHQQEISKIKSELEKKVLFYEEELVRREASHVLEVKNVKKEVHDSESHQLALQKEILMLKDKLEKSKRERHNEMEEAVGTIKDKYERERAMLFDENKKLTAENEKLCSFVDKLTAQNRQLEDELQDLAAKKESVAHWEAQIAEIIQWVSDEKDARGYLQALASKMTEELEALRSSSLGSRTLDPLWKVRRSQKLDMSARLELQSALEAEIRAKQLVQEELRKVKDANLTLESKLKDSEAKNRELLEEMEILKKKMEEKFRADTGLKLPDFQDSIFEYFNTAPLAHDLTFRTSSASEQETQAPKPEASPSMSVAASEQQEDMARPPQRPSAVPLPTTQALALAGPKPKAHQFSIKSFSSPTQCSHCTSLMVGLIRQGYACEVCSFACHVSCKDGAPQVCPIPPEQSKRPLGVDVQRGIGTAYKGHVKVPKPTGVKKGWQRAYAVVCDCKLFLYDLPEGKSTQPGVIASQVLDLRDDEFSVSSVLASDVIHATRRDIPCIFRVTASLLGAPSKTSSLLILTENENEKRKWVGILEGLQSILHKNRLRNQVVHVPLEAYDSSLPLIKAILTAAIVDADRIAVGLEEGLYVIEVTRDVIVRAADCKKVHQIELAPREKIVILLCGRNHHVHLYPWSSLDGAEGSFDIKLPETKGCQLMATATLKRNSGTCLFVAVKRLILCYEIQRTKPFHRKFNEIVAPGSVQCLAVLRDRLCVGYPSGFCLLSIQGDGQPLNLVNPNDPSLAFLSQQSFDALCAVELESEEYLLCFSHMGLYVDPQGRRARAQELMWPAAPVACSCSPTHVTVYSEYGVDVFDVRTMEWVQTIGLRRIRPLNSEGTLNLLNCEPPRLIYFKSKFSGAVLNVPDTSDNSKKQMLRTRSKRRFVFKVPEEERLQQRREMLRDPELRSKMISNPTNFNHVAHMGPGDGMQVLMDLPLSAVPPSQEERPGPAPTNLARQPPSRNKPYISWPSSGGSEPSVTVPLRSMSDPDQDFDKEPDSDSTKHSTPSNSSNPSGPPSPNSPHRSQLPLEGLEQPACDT

Adenosine kinase = Adenosine kinase (Homo sapiens, UniProt P55263)
Sequence of Adenosine kinase (P55263 whole entry): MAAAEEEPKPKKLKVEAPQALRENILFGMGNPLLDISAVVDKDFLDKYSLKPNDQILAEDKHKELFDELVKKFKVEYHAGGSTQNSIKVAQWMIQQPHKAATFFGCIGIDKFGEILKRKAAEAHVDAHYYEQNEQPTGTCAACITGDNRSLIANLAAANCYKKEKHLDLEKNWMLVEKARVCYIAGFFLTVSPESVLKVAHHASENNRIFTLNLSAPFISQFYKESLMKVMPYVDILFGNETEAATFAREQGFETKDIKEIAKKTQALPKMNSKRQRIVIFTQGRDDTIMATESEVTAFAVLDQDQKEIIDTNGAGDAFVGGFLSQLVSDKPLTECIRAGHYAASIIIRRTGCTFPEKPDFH

[6] = target: Serine/threonine-protein kinase MRCK alpha (Homo sapiens, UniProt Q5VT25)
Sequence of Serine/threonine-protein kinase MRCK alpha (Q5VT25 whole entry): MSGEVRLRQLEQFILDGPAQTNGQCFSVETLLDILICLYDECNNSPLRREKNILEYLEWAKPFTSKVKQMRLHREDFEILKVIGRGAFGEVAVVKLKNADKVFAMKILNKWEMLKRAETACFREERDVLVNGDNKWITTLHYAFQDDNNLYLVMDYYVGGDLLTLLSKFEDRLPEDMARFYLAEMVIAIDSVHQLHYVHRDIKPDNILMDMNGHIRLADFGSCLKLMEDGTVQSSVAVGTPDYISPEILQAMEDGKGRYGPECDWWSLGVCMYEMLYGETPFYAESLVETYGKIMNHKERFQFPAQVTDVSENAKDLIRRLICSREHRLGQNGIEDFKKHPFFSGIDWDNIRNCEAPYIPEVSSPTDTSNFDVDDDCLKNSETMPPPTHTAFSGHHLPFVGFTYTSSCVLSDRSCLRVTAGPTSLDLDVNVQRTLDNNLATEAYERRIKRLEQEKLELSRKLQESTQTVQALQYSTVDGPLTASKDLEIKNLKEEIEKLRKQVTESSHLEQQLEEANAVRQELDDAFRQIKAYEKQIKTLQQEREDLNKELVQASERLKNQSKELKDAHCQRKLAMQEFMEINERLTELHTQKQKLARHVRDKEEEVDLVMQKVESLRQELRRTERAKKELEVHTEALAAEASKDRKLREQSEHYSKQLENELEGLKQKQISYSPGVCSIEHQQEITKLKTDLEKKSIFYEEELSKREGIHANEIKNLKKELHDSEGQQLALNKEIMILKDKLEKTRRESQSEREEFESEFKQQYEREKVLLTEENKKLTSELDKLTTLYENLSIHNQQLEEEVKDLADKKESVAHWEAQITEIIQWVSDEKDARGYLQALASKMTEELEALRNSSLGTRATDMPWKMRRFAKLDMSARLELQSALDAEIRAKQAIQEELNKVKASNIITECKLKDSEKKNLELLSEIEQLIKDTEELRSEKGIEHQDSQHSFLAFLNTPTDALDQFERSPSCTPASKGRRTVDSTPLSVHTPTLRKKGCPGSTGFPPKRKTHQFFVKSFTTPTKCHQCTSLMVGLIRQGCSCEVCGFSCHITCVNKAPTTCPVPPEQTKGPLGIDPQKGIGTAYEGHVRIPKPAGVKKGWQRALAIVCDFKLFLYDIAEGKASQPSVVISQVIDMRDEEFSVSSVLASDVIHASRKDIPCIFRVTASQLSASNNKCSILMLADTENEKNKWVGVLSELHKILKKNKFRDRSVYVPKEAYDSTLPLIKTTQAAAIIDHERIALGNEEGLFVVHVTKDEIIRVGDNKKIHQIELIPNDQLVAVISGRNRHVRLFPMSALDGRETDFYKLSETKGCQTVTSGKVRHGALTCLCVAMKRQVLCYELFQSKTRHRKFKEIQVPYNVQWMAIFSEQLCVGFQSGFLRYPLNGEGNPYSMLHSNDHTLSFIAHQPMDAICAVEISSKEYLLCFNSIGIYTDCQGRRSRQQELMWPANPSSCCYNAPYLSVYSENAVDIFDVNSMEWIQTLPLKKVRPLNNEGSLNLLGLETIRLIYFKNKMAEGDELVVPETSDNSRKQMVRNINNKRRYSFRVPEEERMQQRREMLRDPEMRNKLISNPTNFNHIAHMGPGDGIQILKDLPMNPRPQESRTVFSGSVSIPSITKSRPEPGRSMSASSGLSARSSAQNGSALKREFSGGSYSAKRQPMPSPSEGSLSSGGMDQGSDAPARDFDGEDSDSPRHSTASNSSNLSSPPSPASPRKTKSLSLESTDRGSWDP

[7] = target: Tyrosine-protein kinase Fyn (Homo sapiens, UniProt P06241)
Sequence of Tyrosine-protein kinase Fyn (P06241 whole entry): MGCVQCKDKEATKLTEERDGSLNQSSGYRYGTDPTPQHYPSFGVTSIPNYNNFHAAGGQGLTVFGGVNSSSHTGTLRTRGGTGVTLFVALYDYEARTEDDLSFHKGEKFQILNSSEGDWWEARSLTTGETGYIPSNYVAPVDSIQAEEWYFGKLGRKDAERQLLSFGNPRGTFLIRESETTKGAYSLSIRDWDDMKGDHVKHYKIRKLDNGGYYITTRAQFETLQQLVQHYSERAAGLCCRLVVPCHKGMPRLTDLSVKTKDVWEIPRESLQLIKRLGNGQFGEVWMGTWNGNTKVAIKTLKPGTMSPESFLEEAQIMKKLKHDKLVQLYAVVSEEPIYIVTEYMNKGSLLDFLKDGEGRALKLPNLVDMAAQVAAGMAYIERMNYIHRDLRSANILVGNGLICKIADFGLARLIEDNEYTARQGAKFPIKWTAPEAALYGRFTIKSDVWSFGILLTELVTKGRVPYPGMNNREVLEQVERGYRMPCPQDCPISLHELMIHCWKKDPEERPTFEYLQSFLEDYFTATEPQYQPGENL
Further: in the data inactive means no Kd found up to 30 µM.

SMILES	Kd [1]	Kd [2]	Kd [3]	Kd [4]	Kd [5]	Kd (Adenosine kinase)	Kd [6]	Kd [7]
Cc1c(F)cc(C(=O)NC2CC2)cc1-c1ccc(C(=O)NCC(C)(C)C)cn1 [LOSMAPIMOD]	> 30 µM (inactive)	> 30 µM (inactive)	> 30 µM (inactive)	> 30 µM (inactive)	> 30 µM (inactive)	> 30 µM (inactive)	> 30 µM (inactive)	> 30 µM (inactive)
CO[C@H]1C[C@@H]2CC[C@@H](C)[C@@](O)(O2)C(=O)C(=O)N2CCCC[C@H]2C(=O)O[C@H]([C@H](C)C[C@@H]2CC[C@@H](OCCO)[C@H](OC)C2)CC(=O)[C@H](C)/C=C(\C)[C@@H](O)[C@@H](OC)C(=O)[C@H](C)C[C@H](C)/C=C/C=C/C=C/1C [EVEROLIMUS]	> 30 µM (inactive)	> 30 µM (inactive)	> 30 µM (inactive)	> 30 µM (inactive)	> 30 µM (inactive)	> 30 µM (inactive)	> 30 µM (inactive)	> 30 µM (inactive)
CCN1CCN(Cc2ccc(-c3cc4c(N[C@H](C)c5ccccc5)ncnc4[nH]3)cc2)CC1 [AEE-788]	28.2 µM (active)	> 30 µM (inactive)	> 30 µM (inactive)	> 30 µM (inactive)	> 30 µM (inactive)	> 30 µM (inactive)	> 30 µM (inactive)	> 30 µM (inactive)
CC(=O)Nc1cccc(-n2c(=O)n(C3CC3)c(=O)c3c(Nc4ccc(I)cc4F)n(C)c(=O)c(C)c32)c1 [TRAMETINIB]	> 30 µM (inactive)	> 30 µM (inactive)	> 30 µM (inactive)	> 30 µM (inactive)	> 30 µM (inactive)	> 30 µM (inactive)	> 30 µM (inactive)	> 30 µM (inactive)
O=C(O)[C@]1(Cc2cccc(Nc3nccs3)n2)CC[C@@H](Oc2cccc(Cl)c2F)CC1 [MK-5108]	> 30 µM (inactive)	> 30 µM (inactive)	> 30 µM (inactive)	> 30 µM (inactive)	> 30 µM (inactive)	> 30 µM (inactive)	> 30 µM (inactive)	> 30 µM (inactive)
Cc1ccc(NC(=O)c2ccc(CN3CC[C@H](N(C)C)C3)c(C(F)(F)F)c2)cc1Nc1nccc(-c2cncnc2)n1 [BAFETINIB]	0.048 µM (active)	1.14 µM (active)	> 30 µM (inactive)	> 30 µM (inactive)	> 30 µM (inactive)	> 30 µM (inactive)	> 30 µM (inactive)	1.44 µM (active)
O=C(Nc1ccc(-c2ccnc(Nc3ccc(N4CCOCC4)cc3)n2)cc1)C1CCCN1 (centres undefined) [XL-019]	> 30 µM (inactive)	> 30 µM (inactive)	> 30 µM (inactive)	> 30 µM (inactive)	> 30 µM (inactive)	> 30 µM (inactive)	> 30 µM (inactive)	> 30 µM (inactive)
C[C@@H]1CN(Cc2ccc(F)cc2)[C@@H](C)CN1C(=O)c1cc2c(C(=O)C(=O)N(C)C)cn(C)c2cc1Cl [TALMAPIMOD]	> 30 µM (inactive)	> 30 µM (inactive)	> 30 µM (inactive)	> 30 µM (inactive)	> 30 µM (inactive)	> 30 µM (inactive)	> 30 µM (inactive)	> 30 µM (inactive)

Source: ChEMBL document CHEMBL3991601, “The target landscape of clinical kinase drugs” (Science, 2017)
